Source: PubChem BioAssay AID330 (DTP/NCI, 2004)
Several values for one entry are separate records, joined by “and”; a condition that tells them apart may be missing. Equal entries are not always repeated. Inconclusive results and toxic doses are left out. How the source made its calls: active means survival T/C of 150% or more; inactive means T/C below 125% in these data.

System: P388 leukemia ip, CD2F1 mice, survival T/C
Assay: NCI In Vivo Anticancer Drug Screen. Data for tumor model P388 Leukemia (intraperitoneal) in CD2F1 (CDF1) mice
Conditions: endpoint: median survival time, higher = longer survival
How it was run: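 Mice carrying the transplanted tumor received test compound or vehicle. Survival was recorded in each group, and the value is the treated-group measurement divided by that of the vehicle-treated control group.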

[1] = dose: 60.0 mg/kg/injection, schedule: Q01DX005 (ip), vehicle: saline with Tween-80
[2] = dose: 120.0 mg/kg/injection, schedule: Q01DX005 (ip), vehicle: saline with Tween-80
[3] = dose: 50.0 mg/kg/injection, schedule: Q01DX009 (ip), vehicle: saline with Tween-80

Measured: T/C

O=C(O)CCCCC1CCSS1 (stereo not given)
inactive: dose: 15.63 mg/kg/injection, schedule: Q01DX005 (ip), vehicle: Klucel (hydroxypropylcellulose) (HPC) 103 % of control | dose: 31.25 mg/kg/injection, schedule: Q01DX005 (ip), vehicle: Klucel (hydroxypropylcellulose) (HPC) 103 % of control | dose: 62.5 mg/kg/injection, schedule: Q01DX005 (ip), vehicle: Klucel (hydroxypropylcellulose) (HPC) 94 % of control | dose: 125.0 mg/kg/injection, schedule: Q01DX005 (ip), vehicle: Klucel (hydroxypropylcellulose) (HPC) 97 % of control

COC(=O)C1(C)CCCC2(C)C3=C(CCC12)C(=O)c1occc1CC3 (stereo not given)
inactive: dose: 0.37 mg/kg/injection, schedule: Q01DX009 (ip), vehicle: Klucel (hydroxypropylcellulose) (HPC) 100 % of control | dose: 0.75 mg/kg/injection, schedule: Q01DX009 (ip), vehicle: Klucel (hydroxypropylcellulose) (HPC) 103 % of control | dose: 1.5 mg/kg/injection, schedule: Q01DX009 (ip), vehicle: Klucel (hydroxypropylcellulose) (HPC) 100 % of control | dose: 3.0 mg/kg/injection, schedule: Q01DX009 (ip), vehicle: Klucel (hydroxypropylcellulose) (HPC) 99 % of control | dose: 6.0 mg/kg/injection, schedule: Q01DX009 (ip), vehicle: Klucel (hydroxypropylcellulose) (HPC) 108 % of control

ClC(Cl)=Nc1cc(Cl)c(Cl)cc1Cl
inactive: dose: 50.0 mg/kg/injection, schedule: Q01DX009 (ip), vehicle: saline 99 % of control | dose: 100.0 mg/kg/injection, schedule: Q01DX009 (ip), vehicle: saline 90 % of control | dose: 200.0 mg/kg/injection, schedule: Q01DX009 (ip), vehicle: saline 97 % of control

CN(C)CCCN1c2ccccc2CCc2ccccc21
inactive: [1] 115 % of control | [2] 109 % of control

CCC(C)CN1CCc2c3c(c(OC)c(OC)c2C1)CCC3 (stereo not given)
inactive: dose: 100.0 mg/kg/injection, schedule: Q04DX002 (ip), vehicle: saline 101 % of control | dose: 200.0 mg/kg/injection, schedule: Q04DX002 (ip), vehicle: saline 101 % of control

Cn1c(=O)c2c(nc(CCCCc3nc4c(c(=O)n(C)c(=O)n4C)n3C)n2C)n(C)c1=O
inactive: dose: 1.56 mg/kg/injection, schedule: Q01DX009 (ip), vehicle: saline with Tween-80 87 % of control | dose: 3.13 mg/kg/injection, schedule: Q01DX009 (ip), vehicle: saline with Tween-80 89 % of control | dose: 6.25 mg/kg/injection, schedule: Q01DX009 (ip), vehicle: saline with Tween-80 88 % of control | [3] 86 % of control

CC1CCC2(CC1)CC(=O)N(N)C2=O (stereo not given)
inactive: [1] 104 % of control | [2] 105 % of control | dose: 240.0 mg/kg/injection, schedule: Q01DX005 (ip), vehicle: saline with Tween-80 108 % of control

CN(C)c1c2ccccc2c(NC=O)c2ccccc12
inactive: dose: 60.0 mg/kg/injection, schedule: Q01DX005 (ip), vehicle: Klucel (hydroxypropylcellulose) (HPC) 102 % of control | dose: 120.0 mg/kg/injection, schedule: Q01DX005 (ip), vehicle: Klucel (hydroxypropylcellulose) (HPC) 95 % of control | dose: 240.0 mg/kg/injection, schedule: Q01DX005 (ip), vehicle: Klucel (hydroxypropylcellulose) (HPC) 86 % of control

Nc1ccc(Cl)cc1N
inactive: dose: 12.5 mg/kg/injection, schedule: Q01DX009 (ip), vehicle: other 105 % of control | dose: 12.5 mg/kg/injection, schedule: Q01DX009 (ip), vehicle: saline with Tween-80 102 % of control | dose: 25.0 mg/kg/injection, schedule: Q01DX009 (ip), vehicle: other 100 % of control | dose: 25.0 mg/kg/injection, schedule: Q01DX009 (ip), vehicle: saline with Tween-80 102 % of control and 104 % of control | dose: 50.0 mg/kg/injection, schedule: Q01DX009 (ip), vehicle: other 113 % of control | [3] 101 % of control and 107 % of control | dose: 100.0 mg/kg/injection, schedule: Q01DX009 (ip), vehicle: other 105 % of control | dose: 100.0 mg/kg/injection, schedule: Q01DX009 (ip), vehicle: saline with Tween-80 100 % of control and 105 % of control | dose: 200.0 mg/kg/injection, schedule: Q01DX009 (ip), vehicle: other 105 % of control | dose: 200.0 mg/kg/injection, schedule: Q01DX009 (ip), vehicle: saline with Tween-80 114 % of control and 121 % of control

CC1(C)OC2CC(=O)OCC23C1CC(=O)C1(C)C2=CC(=O)OC(c4ccoc4)C2(C)CCC13 (stereo not given)
inactive: dose: 0.5 mg/kg/injection, schedule: Q01DX009 (ip), vehicle: saline + alcohol 106 % of control | dose: 1.0 mg/kg/injection, schedule: Q01DX009 (ip), vehicle: saline + alcohol 108 % of control | dose: 2.0 mg/kg/injection, schedule: Q01DX009 (ip), vehicle: saline + alcohol 101 % of control | dose: 4.0 mg/kg/injection, schedule: Q01DX009 (ip), vehicle: saline + alcohol 105 % of control
